Assay [1] has as its target immunoproteasome (L7) (Homo sapiens, UniProt P28062). Put plainly: Enzyme kinetic assay of chymotrypsin-like (CT-L) activity, isolated 20S immunoproteasome prep. As to conditions: for EC50 ratio (B5/L7): 20S ratio: EC50 constitutive / EC50 immunoproteasome, greater than one = prefers immunoproteasome. It counts as biochemical. From the text:
(§1) This can be done using enzyme kinetic assays such as those disclosed in U.S. application Ser. No. 09/569,748, Example 2 and Stein et al., Biochem. […] A ratio of less than one denotes the molecule inhibits the CT-L activity of the constitutive proteasome better than that of the immunoproteasome. Ratios greater than one signifies the molecule inhibits chymotrypsin-like activity of the immunoproteasome better than that of the constitutive proteasome.

Assay [2] has as its target constitutive proteasome (B5) (Homo sapiens, UniProt P28074). Put plainly: Enzyme kinetic assay of chymotrypsin-like (CT-L) activity, isolated 20S constitutive proteasome prep. It is filed as biochemical. The conditions noted are these: isolated 20S proteasome prep with greater than 90% constitutive proteasome subunits.
Source text: as §1

Structures are written as SMILES. Some results are limits rather than exact numbers.

On to `CC(C)C[C@H](NC(=O)[C@H](Cc1ccccc1)NC(=O)[C@H](CC(C)C)NC(=O)[C@H](CCc1ccccc1)NC(=O)CN1CCOCC1)B(O)O`, for which, in assay [1], the “EC50 ratio (B5/L7)” value turned out to be 1.10. Take `CC(C)C[C@H](NC(=O)[C@H](Cc1ccccc1)NC(=O)c1cnccn1)C(=O)[C@@]1(C)CO1`: in assay [2], the “EC50 for constitutive proteasome (B5)” value is “Inactive”. Also, in assay [1] (CT-L activity, isolated 20S proteasome prep with greater than 90% immunoproteasome subunits), the “EC50 for immunoproteasome (L7)” value is “Inactive”. As to `C[C@H](NC(=O)CN1CCOCC1)C(=O)N[C@@H](Cc1ccc(O)cc1)C(=O)N[C@@H](Cc1ccccc1)C(=O)[C@@]1(C)CO1`, in assay [1], the “EC50 ratio (B5/L7)” value came out at 17.04.

With `C[C@H](NC(=O)CN1CCOCC1)C(=O)N[C@@H](Cc1ccc(O)cc1)C(=O)N[C@@H](Cc1ccccc1)B(O)O`, the “EC50 ratio (B5/L7)” value in assay [1] was determined as 18.34. On to `C[C@@H](NC(=O)CN1CCOCC1)C(=O)N[C@@H](Cc1c[nH]c2ccccc12)C(=O)N[C@@H](Cc1ccccc1)C(=O)[C@@]1(C)CO1`, for which the “EC50 for constitutive proteasome (B5)” value in assay [2] is “Inactive”. Besides, in assay [1], the “EC50 ratio (B5/L7)” value was >>1.0. Take `C[C@@H](NC(=O)CN1CCOCC1)C(=O)N[C@@H](Cc1c[nH]c2ccccc12)C(=O)N[C@@H](Cc1ccccc1)B(O)O`: the “EC50 ratio (B5/L7)” value in assay [1] is on record as 6.49.

Source of the values: patent US9359398B2, “Compounds for immunoproteasome inhibition” (Onyx Therapeutics, Inc., priority 2010, dated 2016).
